Experimental data: patent US7262325B2, “Method of preparing salicylamides” (Emisphere Technologies, Inc., priority 2000, dated 2007)

Source text: A preferred base for such an alkylation reaction is sodium carbonate. […] The water content of the reaction mixture may also be reduced by performing the reaction in a low pressure atmosphere (e.g a vacuum).

Structure (SMILES): O=c1[n-]c(=O)c2ccccc2o1.[Na+] [carsalam-sodium]
- solubility in DMAC: about 6%
